Calls of active or inactive are those of the source.
Experiments:
Mus musculus [1] = test: Anticonvulsant activity in pentylenetetrazole-induced seizure Swiss Mus musculus (mouse) model assessed as increase in tonic seizure threshold at 40 mg/kg, ip measured after 30 min (reference value: 59.58 +/-1.01 mg/kg); format: functional; conditions: route intraperitoneal
[2] = target: Sodium channel protein type 2 subunit alpha (Homo sapiens, UniProt Q99250); test: Binding affinity to Nav 1.2 (unknown origin)
Mus musculus [3] = test: Anticonvulsant activity in pentylenetetrazole-induced seizure Swiss Mus musculus (mouse) model assessed as increase in clonic seizure threshold at 40 mg/kg, ip measured after 30 min (reference value: 38.9 +/-1.01 mg/kg); format: functional; conditions: route intraperitoneal
Mus musculus [4] = test: Anticonvulsant activity in pentylenetetrazole-induced seizure Swiss Mus musculus (mouse) model assessed as increase in clonic seizure threshold at 10 to 20 mg/kg, ip measured after 30 min; format: functional, organism-based

Sodium channel protein type 2 subunit alpha, sequence (Q99250 whole entry): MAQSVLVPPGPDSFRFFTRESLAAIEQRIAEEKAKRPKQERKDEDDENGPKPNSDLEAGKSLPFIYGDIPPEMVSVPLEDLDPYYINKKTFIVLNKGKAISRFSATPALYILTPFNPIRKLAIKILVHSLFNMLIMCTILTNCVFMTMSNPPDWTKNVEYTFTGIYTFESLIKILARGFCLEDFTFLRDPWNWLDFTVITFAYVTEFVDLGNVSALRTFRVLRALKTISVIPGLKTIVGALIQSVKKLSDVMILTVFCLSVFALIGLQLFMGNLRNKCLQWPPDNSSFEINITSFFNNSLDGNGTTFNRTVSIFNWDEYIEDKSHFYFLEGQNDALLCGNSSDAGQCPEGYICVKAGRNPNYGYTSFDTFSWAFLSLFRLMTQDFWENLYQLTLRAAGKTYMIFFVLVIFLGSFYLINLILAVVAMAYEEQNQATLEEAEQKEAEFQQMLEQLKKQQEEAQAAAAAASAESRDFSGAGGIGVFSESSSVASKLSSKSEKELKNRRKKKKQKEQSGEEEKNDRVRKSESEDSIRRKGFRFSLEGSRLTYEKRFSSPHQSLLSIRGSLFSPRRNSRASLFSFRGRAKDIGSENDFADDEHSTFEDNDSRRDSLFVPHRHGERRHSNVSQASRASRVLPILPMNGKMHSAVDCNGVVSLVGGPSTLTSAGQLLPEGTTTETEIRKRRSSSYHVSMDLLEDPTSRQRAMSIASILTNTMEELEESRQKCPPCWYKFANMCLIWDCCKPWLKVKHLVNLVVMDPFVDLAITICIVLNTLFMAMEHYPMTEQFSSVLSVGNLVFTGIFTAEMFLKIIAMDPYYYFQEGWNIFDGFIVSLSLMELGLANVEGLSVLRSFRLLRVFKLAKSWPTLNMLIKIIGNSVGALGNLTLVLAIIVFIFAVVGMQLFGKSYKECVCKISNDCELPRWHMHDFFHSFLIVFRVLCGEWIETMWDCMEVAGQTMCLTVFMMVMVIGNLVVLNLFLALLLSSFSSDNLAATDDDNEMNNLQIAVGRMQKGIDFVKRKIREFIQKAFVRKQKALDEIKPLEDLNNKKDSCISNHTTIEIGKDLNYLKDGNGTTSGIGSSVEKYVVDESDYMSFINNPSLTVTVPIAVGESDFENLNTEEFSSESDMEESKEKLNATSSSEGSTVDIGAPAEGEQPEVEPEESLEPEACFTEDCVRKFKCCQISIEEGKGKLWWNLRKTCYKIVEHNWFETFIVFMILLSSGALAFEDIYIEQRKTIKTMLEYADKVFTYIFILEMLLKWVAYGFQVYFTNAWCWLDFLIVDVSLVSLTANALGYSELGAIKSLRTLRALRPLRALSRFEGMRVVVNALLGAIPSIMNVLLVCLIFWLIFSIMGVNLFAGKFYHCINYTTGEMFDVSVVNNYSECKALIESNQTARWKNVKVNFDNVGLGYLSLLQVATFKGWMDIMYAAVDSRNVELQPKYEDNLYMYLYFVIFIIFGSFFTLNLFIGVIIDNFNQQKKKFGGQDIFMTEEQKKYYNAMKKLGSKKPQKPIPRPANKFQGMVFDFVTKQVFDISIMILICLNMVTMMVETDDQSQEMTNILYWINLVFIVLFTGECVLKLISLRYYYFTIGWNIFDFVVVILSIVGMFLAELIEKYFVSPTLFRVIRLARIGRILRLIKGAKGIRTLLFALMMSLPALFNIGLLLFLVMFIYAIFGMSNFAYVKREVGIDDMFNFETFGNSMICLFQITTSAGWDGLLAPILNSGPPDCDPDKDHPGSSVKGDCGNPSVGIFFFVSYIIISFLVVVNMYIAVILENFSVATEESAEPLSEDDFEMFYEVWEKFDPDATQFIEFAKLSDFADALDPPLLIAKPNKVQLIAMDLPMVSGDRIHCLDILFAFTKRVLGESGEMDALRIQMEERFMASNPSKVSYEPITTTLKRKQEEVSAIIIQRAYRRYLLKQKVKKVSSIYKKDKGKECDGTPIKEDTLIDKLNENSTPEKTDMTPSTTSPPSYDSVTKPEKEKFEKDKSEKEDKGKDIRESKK

SMILES | Tonic seizure threshold (PTZ dose) (Mus musculus [1]) [mg/kg] | Ki [2] [µM] | Clonic seizure threshold (PTZ dose) (Mus musculus [3]) [mg/kg] | Activity (Mus musculus [4])
O=C(O)c1ccc(N2C(=O)c3ccccc3C2=O)cc1O | 64.97 | 78.4 | 52.1 | –
NS(=O)(=O)c1ccc(N2C(=O)c3ccccc3C2=O)cc1 | 60.56 | 16 | 33.4 | –
O=C(O)c1ccccc1N1C(=O)c2ccccc2C1=O [N-PHTHALOYLANTHRANILIC ACID] | 58.08 | 338 | 42.95 | –
O=C1c2ccccc2C(=O)N1c1ccc([N+](=O)[O-])cc1 | 61.6 | 65.6 | 41.12 | –
O=C1NC(=O)C(c2ccccc2)(c2ccccc2)N1 [PHENYTOIN] | 115 | – | 49.2 | inactive
COc1ccc(N2C(=O)c3ccccc3C2=O)c([N+](=O)[O-])c1 | 61.92 | 108 | 49.4 | –
COc1ccc(N2C(=O)c3ccccc3C2=O)c(N)c1 | 98.12 | 20.3 | 56.34 | –
O=C1c2ccccc2C(=O)N1c1ccccc1[N+](=O)[O-] | 65.66 | 134 | 46.34 | –
O=C(O)c1ccc(N2C(=O)c3ccccc3C2=O)cc1 | 79.94 | 50.4 | 46.65 | –
NS(=O)(=O)c1nnc(N2C(=O)c3ccccc3C2=O)s1 | 62.35 | 61.1 | 45.14 | –
CC(=O)Nc1ccc(N2C(=O)c3ccccc3C2=O)cc1 | 86.37 | 18.3 | 40.37 | –
O=C1c2ccccc2C(=O)N1c1cccc([N+](=O)[O-])c1 | 96.84 | 21.8 | 64.89 | –

— ChEMBL document CHEMBL3044659, “Docking, synthesis, and pharmacological evaluation of isoindoline derivatives as anticonvulsant agents” (Med Chem Res, 2013)
